Counter-ions that a name gives are not always drawn.
How the values were obtained:
[1] = in vitro; type: cell-based, human; details: human, dermal fibroblasts, MTT; for CC50 at 2 h: IC50 2 h (cytotoxicity), 2 h incubation; for CC50 at 16 h: IC50 16 h (cytotoxicity), 16 h incubation
Experimental: As discussed above, the chemical modifier, when present in the subject in its free or released form, and in appropriately administered amounts, should preferably be non-toxic. Additionally, any further in vivo degradation products of the chemical modifier should be non-toxic, as well. Table 2 provides in vitro relative cytotoxicity data for a number of testosterone/chemical modifier complexes, prepared in accordance with the invention. The cytotoxicity assessment was carried out by examining the viability of human dermal fibroblasts in the presence of a number of testosterone/chemical modifier complexes in accordance with the present invention. Details of the experimental protocol are summarized in Example 27.
The viability of human dermal fibroblasts in the presence of the 17-hydroxy sterol/chemical modifier compounds was assayed using MTT (3-[4,5-dimethylthiazol-2-yl]-2,5-diphenyltetrazolium bromide) reduction to formazan by mitochondrial enzymes as an indicator of cytotoxicity (Swisher, et al.). Confluent fibroblast cells were incubated for 2 or 16 hours in the presence of increasing concentrations of drug complex. At the end of the incubation period, medium was replaced for 4 hours by medium containing the tetrazolium salt, MTT. Metabolism of MTT to a blue formazan was quantitated by spectrophotometry at 540 nm.

[2] = Degradation (%/d)
[3] = Water solubility (H2O sol); details: H2O sol
[4] = in vitro; type: in vitro ADME; details: 37° C.; for half-life: human, serum
Experimental: The hydrolytic activity of the sterol prodrug may be evaluated by studies of the chemical or enzymatic conversion of the prodrug to the unmodified parent compound, as described in Example 26.
Generally, the sterol/chemical modifier complex is dissolved in a minimum amount of a suitable solvent, such as ethanol, and the resulting solution is added to a sample of human serum. Following incubation, aliquots are then removed at various time points and analyzed to determine the extent of hydrolysis. Table I herein lists the representative serum half-lives of a number of testosterone prodrugs according to the present invention.
The rates of conversion are readily determined, for example by spectrophotometric methods or by gas-liquid or high performance liquid chromatography. Half-lives and other kinetic parameters may then be calculated using standard techniques.
Determination of Testosterone Prodrug Hydrolysis in Serum
Stock solutions (6 mM) of the testosterone prodrugs were prepared in ethanol (dissolution was accomplished by vortexing, sonication, or warming at 37° C., as needed). If required for dissolution, one drop of a co-solvent such as dimethylsulfoxide, dimethylformamide or methanol was added. (Acetonitrile is undesirable because it deactivates the serum enzymes).
HPLC separation methods were established for each study by dilution of the above stock solutions (6 μl) in acetonitrile (1 ml) to form 36 μM solutions. Samples (10 μl) were injected onto a Nucleosil 5C8 column (250×4 mm ID) fitted with an additional guard column (11×4 mm ID) and eluted with a mobile phase of approximately 65% HPLC grade water and 35% trifluoroacetic acid in acetonitrile (0.1% TFA in acetonitrile). Exact proportions of the mobile phase eluents were adjusted in each case to give optimum separation and run times.
Freshly defrosted human serum (3 ml, Sigma) was warmed at 37° C. for five minutes and then the testosterone prodrug stock solution (60 μl) was added with vortexing. […] The aliquots were added to 800 μl of 2% zinc sulfate solution in a 1.5 ml disposable microcentrifuge tube, vortexed immediately and centrifuged at 14,000 RPM for 3 minutes. The supernatants (10 μl) were injected onto the HPLC and peak areas used to determine the percent of parent drug formed or percent of prodrug remaining. Serum blanks were prepared similarly by addition of serum to the zinc sulfate solution, followed by centrifugation. Initial (time=0) samples were prepared by adding serum to the zinc sulfate solution, followed by addition of the complex and separation by centrifugation. The time=0 samples, as well as the original stock solutions, were also used to assess the stability of the complex in the absence of enzyme. Half-lives were determined using the following equation : […]
and plotting time (x ordinate) versus the natural logarithm of percent remaining prodrug (y ordinate) to obtain the slope (m) and the y intercept (b).

[5] = type: in vitro ADME, mouse; details: for Enhancement in in vitro electrotransport skin flux compared to testosterone: hairless mouse skin, vs unmodified testosterone, 'nearly 10-fold enhancement or greater'; for Flux, active electrotransport (ET): active cells (ETm), 100 uA/cm^2, 6 h
Experimental: In vitro electrotransport of testosterone/chemical modifier complexes across hairless mouse skin was evaluated as described in Example 28. The experiments were conducted using modified Valia-Chien cells having 1.0 ml donor and 2.5 ml receptor cells. Anodic transport was carried out using a silver wire-based salt bridge in the donor compartment and a silver chloride cathode in the receptor. Cathodic transport was effected by reversing the electrode configuration. The cells were connected in series and a constant current and temperature were supplied to each cell.
After a predetermined period of time (6 h), aliquots were removed from the receiver phase for immediate analysis by HPLC to determine cumulative flux.
The electrotransport of testosterone/chemical modifier complexes was achieved using modified Valia-Chien cells (1.0 ml donor and 2.5 ml receptor cells). Full thickness, hairless mouse skin (Charles River Labs, Wilmington, Mass.) was soaked for one hour in phosphate buffered saline (PBS, pH=7.4) before placing between each compartment (dermal side of skin facing toward receptor). One passive (P1:data) and two or more (ETm :data) active cells were used to screen each compound.
A 10 mM (1 ml) aqueous solution of testosterone drug/prodrug was placed in the donor (unstirred) compartment and the receptor (stirred) was filled with 2.5 ml of PBS. In order to check for egress due to e.g. damaged skin, a zero hour sample of receptor ([…]) was taken one half hour after the drug solution was placed in the donor compartment. Replacement fluid of equal sample volume was added to the receptor compartment immediately after samples were taken.
Anodic electrotransport was achieved using a silver wire (immersed in a polyvinylalcohol-based salt bridge to minimize junction potential) in the donor compartment and a AgCl cathode in the receptor. […] The electrotransport cells were connected in series and constant current (100 uA/cm^2, […] for a skin area of 0.64 cm^2) and temperature (32° C.) were supplied to each cell. After six hours of active/passive transport, aliquots (200 ul) of the receptor were sampled and immediately analyzed by HPLC.
A standard plot of peak area and concentration for each compound was constructed using HPLC. The peak areas of the samples were determined and the concentrations calculated using the standard data. Cumulative flux was calculated using Quickbasic and reported in nmol/cm^2 /hr.

[6] = Steady state flux across human skin (iontophoretic); type: in vitro ADME
Experimental: Another useful factor for in vitro assessment of skin permeability of a target drug or drug complex is steady state flux. Typically, when performing a kinetic analysis of the skin-penetrating ability of a target compound through a membrane, such as skin, such an analysis includes an assessment of the lag time and the steady state flux or permeation rate. The ideal membrane for such determinations is human skin.
Steady state flux across human skin was determined for three distinct testosterone/chemical modifier complexes, as shown in FIG. 5 and in Table 4. In FIG. 5, iontophoretic flux rates over time are plotted for testosterone-17β-stachydrine ester, chloride salt [2.9], (closed circles), testosterone-17β-(L-carnitine ethyl ester) carbonate, iodide salt [1.7] (solid squares), and testosterone-17β-choline carbonate, bromide salt [1.4] (open circles). […] Steady state flux values in FIG. 5 are expressed as testosterone equivalents in units of μg/cm^2 h.
Iontophoretically-induced steady state flux across human skin was determined for three distinct testosterone/chemical modifier complexes, testosterone-17β-stachydrine ester, chloride salt [2.9], testosterone-17β-(L-carnitine ethyl ester) carbonate, iodide salt [1.7], and testosterone-17β-choline carbonate, bromide salt [1.4]. The in vitro skin flux experiments were carried out in a similar fashion to those described above, with the exception that human skin was used as the membrane.
Steady state flux values provide an indication of the total amount of drug (or drug complex) that can penetrate the skin, under a given set of experimental conditions.

[7] = murine skin, 10 mM donor, 32° C.

| SMILES | CC50 at 2 h [1] [µM] | CC50 at 16 h [1] [µM] | Degradation [2] [%/d] | solubility [3] [mg/mL] | half-life ([4]; HPLC) [h] | Enhancement in in vitro electrotransport skin flux compared to testosterone [5] [fold] | Flux, active electrotransport (ET) [5, 7] [nmol/cm^2 /hr] | Flux, passive (P) ([5]; murine skin, passive cells (P), 10 mM donor, 6 h, 32° C.) [nmol/cm^2 /hr] | Steady State Flux ([6]; iontophoresis (Table 4)) [nmole/cm^2 /h] | half-life ([4]; footnote 1: prodrug remaining, no testosterone formed) [h] | Steady State Flux ([6]; iontophoresis) [nmol/cm^2 /h] | Steady state flux compared with the other two complexes (1.4, 1.7) ([6]; iontophoresis) | Serum half-life ([4]; human serum, HPLC, hydrochloride salt) [h] |
| --- | --- | --- | --- | --- | --- | --- | --- | --- | --- | --- | --- | --- | --- |
| C[C@]12CC[C@H]3[C@@H](CCC4=CC(=O)CC[C@@]43C)[C@@H]1CC[C@@H]2OC(=O)OCC[N+](C)(C)C [Code 1.4, testosterone-17β-choline carbonate, bromide salt] | 966 | 929 | 0 | 4 | 0.4 | ≥ 10 | 20.8 ± 21.0 | 4.0 ± 0.8 | 68 ± 4 | – | – | – | – |
| C[C@]12CC[C@H]3[C@@H](CCC4=CC(=O)CC[C@@]43C)[C@@H]1CC[C@@H]2OC(=O)CCCC[N+](C)(C)C [Code 2.4] | 609 | 568 | 0 | 18 | ~720 | – | 2.7 ± 1.1 | – | – | – | – | – | – |
| C[C@]12CC[C@H]3[C@@H](CCC4=CC(=O)CC[C@@]43C)[C@@H]1CC[C@@H]2OC(=O)CC[N+](C)(C)C [Code 2.5, testosterone-17β-(N,N,N-trimethyl-β-alaninyl ester), bromide salt] | > 600 | 329 | 0 | 0.3 | – | ≥ 10 | 18.0 ± 2.4 | – | – | ~0.167 | – | – | – |
| CC(=O)O[C@@H]1C[C@@H](C(=O)O[C@H]2CC[C@H]3[C@@H]4CCC5=CC(=O)CC[C@]5(C)[C@H]4CC[C@]23C)[N+](C)(C)C1 [Code 2.6, testosterone-17β-[(O-acetyl)-betonicinyl ester], chloride salt] | 733 | 271 | 0 | 21 | 8.2 | – | 0 | – | – | – | – | – | – |
| C[n+]1cccc(C(=O)O[C@H]2CC[C@H]3[C@@H]4CCC5=CC(=O)CC[C@]5(C)[C@H]4CC[C@]23C)c1 [Code 2.8] | 598 | 492 | 0 | 0.8 | 25.5 | – | 3.1 ± 1.2 | – | – | – | – | – | – |
| C[C@]12CC[C@H]3[C@@H](CCC4=CC(=O)CC[C@@]43C)[C@@H]1CC[C@@H]2OC(=O)[C@@H]1CCC[N+]1(C)C [Code 2.9, testosterone-17β-stachydrine ester, chloride salt] | 2130 | 750 | 0 | 22 | 13.7 | – | – | – | 184 ± 30 | – | 184 | greater than twice that of either of the other two testosterone/chemical modifier complexes | – |
| C[C@]12CC[C@H]3[C@@H](CCC4=CC(=O)CC[C@@]43C)[C@@H]1CC[C@@H]2OC(=O)OCOC(=O)CCCCC[N+](C)(C)C [Code 3.2, testosterone-17β-[6-(N,N,N-trimethylammonio)hexanoyloxy-methyl]carbonate iodide salt] | 615 | 406 | 77 | 20 | 0.217 | – | 4.8 ± 0.6 | – | – | – | – | – | – |
| C[C@]12CC[C@H]3[C@@H](CCC4=CC(=O)CC[C@@]43C)[C@@H]1CC[C@@H]2OC(=O)Oc1ccc(CC[N+](C)(C)C)cc1 [Code 3.4, testosterone-17β-candicine carbonate, iodide salt] | 544 | 44.6 | 1 | 0.1 | 5.8 | – | 0 | – | – | – | – | – | – |
| COC(=O)[C@H](COC(=O)O[C@H]1CC[C@H]2[C@@H]3CCC4=CC(=O)CC[C@]4(C)[C@H]3CC[C@]12C)N(C)C [Code 3.6, testosterone-17β-(N,N-dimethyl-L-serine methyl ester) carbonate, hydrochloride salt] | 224 | 157 | 3.8 | 20 | – | – | 6.8 ± 0.3 | – | – | – | – | – | 0.75 |
| C[C@]12CC[C@H]3[C@@H](CCC4=CC(=O)CC[C@@]43C)[C@@H]1CC[C@@H]2OC(=O)C=CC[N+](C)(C)C [Code 3.8, testosterone-17β-[(4-N,N,N-trimethylammonio) crotonate], chloride salt] | 2290 | 583 | 0 | 21 | 122 | ≥ 10 | 9.4 ± 1.2 | – | – | – | – | – | – |

From patent publication US5622944A, “Testosterone prodrugs for improved drug delivery” (Affymax Technologies N.V., priority 1995, dated 1997)
